Consider one molecule from ChEMBL document CHEMBL1155275, “Synthesis and characterization of 6-deoxy-6-fluoro-D-fructose as a potential compound for imaging breast cancer with PET” (Bioorg Med Chem, 2009).

Holding throughout (format): cell-based
Assay [1] concerns the target T1, Solute carrier family 2, facilitated glucose transporter member 2 (Homo sapiens, UniProt P11168).
T1 sequence (P11168 whole entry): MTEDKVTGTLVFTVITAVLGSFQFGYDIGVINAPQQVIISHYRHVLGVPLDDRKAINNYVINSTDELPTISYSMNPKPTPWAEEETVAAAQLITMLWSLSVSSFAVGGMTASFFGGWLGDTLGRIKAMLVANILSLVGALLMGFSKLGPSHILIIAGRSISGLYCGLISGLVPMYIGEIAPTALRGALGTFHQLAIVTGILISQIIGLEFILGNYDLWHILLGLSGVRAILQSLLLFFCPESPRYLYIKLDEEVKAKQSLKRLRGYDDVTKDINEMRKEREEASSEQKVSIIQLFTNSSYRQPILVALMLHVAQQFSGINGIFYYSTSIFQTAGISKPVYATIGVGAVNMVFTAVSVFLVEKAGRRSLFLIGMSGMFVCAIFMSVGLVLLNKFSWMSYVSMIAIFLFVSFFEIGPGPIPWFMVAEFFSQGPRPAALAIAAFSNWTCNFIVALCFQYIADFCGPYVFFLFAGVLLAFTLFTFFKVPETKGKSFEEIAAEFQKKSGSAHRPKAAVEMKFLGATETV
As to the kind of experiment: Inhibition of GLUT2-mediated [14C]D-glucose uptake in human MCF7 cells by liquid scintillation counting.

Assay [2] concerns the target T1, Solute carrier family 2, facilitated glucose transporter member 2. In words: Inhibition of GLUT2-mediated [14C]D-glucose uptake in human MDA-MB-231 cells by liquid scintillation counting.
The target of assay [3] is T2, Solute carrier family 2, facilitated glucose transporter member 5 (Homo sapiens, UniProt P22732).
T2 sequence (P22732 whole entry): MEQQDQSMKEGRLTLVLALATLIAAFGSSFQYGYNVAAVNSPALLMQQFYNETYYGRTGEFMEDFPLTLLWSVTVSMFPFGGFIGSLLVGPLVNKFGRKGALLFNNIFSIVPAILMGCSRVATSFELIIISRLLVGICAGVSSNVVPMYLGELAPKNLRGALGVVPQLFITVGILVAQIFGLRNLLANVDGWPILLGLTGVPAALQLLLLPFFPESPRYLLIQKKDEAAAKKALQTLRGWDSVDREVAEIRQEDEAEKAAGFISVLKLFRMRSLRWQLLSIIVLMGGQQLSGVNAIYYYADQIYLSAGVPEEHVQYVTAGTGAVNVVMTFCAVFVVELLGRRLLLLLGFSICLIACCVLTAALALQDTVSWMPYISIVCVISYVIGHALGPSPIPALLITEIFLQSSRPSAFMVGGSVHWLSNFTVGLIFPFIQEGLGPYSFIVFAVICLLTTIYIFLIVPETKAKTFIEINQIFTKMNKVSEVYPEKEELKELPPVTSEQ
As to the kind of experiment: Inhibition of GLUT5-mediated [14C]D-fructose uptake in human MCF7 cells by liquid scintillation counting.

The target in assay [4] is T2, Solute carrier family 2, facilitated glucose transporter member 5. In words: Inhibition of GLUT5-mediated [14C]D-fructose uptake in human MDA-MB-231 cells by liquid scintillation counting.

One may read the Ki as the equilibrium dissociation constant of an inhibitor or competing ligand from its target. A lower Ki goes with tighter binding.

The structures appear in SMILES notation.

Regarding `OCC1(O)O[C@H](CF)[C@@H](O)[C@@H]1O` (some centres undefined), the Ki in assay [1] is 916 µM; in assay [2] it was 6210 µM; in assay [3], 154 µM; in assay [4] it was 330 µM.
